Data from patent publication US10111854B2, “Synthesis and use of amine-containing flavonoids as potent anti-leishmanial agents” (The Hong Kong Polytechnic University, priority 2014, dated 2018).

Assays:
[1] = system: L. amazonensis LV78 promastigotes; test: Reactive oxygen species (ROS) level, DCFDA, promastigotes; format: cell-based; conditions: 30 μM
Method: (§1) 50,000 RAW264.7 were seeded in each well of black 96-well plates overnight. Next day, RAW264.7 cells were pre-loaded with 10 μM dichlorofluorescein diacetate (DCFDA) (Abcam) for 1 hr at 37° C. with 5% CO2. A control of non-DCFDA stained cells was also included. The DCFDA-contained supplemented DMEM media was removed. The cells were re-suspended with 10 μM or 30 μM of respective tested compounds and positive control, tert-butyl hydroperoxide. In Leishmania, 1×10^7 promastigotes were also pre-loaded with 10 μM DCFDA at 27° C. for 1 hr. After removing the DCFDA-contained media, the promastigotes were seeded into black 96-well plate and incubated with 30 μM of respective compounds or positive control. The ROS level was determined at different periods of time including 2, 4, 6, 8, 20, 46 and 72 hr using microplate reader (excitation: 485 nm and emission: […]).
(§2) The ROS levels in both macrophage RAW264.7 and L. amazonensis promastigotes was measured by dichlorofluorescein diacetate (DCFDA) dye which is permeable to the cells. With oxidative stress, DCFDA would be oxidized to fluorescent DCF which is an indicator of intracellular ROS level. RAW cells or L. amazonensis promastigotes were pre-loaded with 10 μM of DCFDA for 1 hr, washed and exposed to 39, FM09, pentamidine and amphotericin B for different period of time (2, 4, 6, 8, 20, 46 and 72 hr). The fluorescence level was measured at the 520 nm using 485 nm as an excitation wavelength. 0.1% DMSO or 0.3% DMSO was used as a solvent control. The fluorescent value has been subtracted from non-DCFDA stained cells. The values were presented as mean±standard error of mean.

[2] = system: L. donovani Ld39 promastigotes; test: Anti-promastigote activity (MTS assay), L. donovani Ld39; format: cell-based; conditions: Leishmania donovani, 72 hours
How it was run: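 Promastigotes (1×10^5 per well) in Schneider's medium pH 6.9 with 10% FBS, exposed to serial compound concentrations for 72 h at 27 °C. Viability by MTS/PMS reduction over 4 h, OD 490 nm; IC50 derived.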

[3] = system: L. amazonensis LV78 amastigotes; test: Anti-amastigote activity in infected PEM, L. amazonensis LV78; format: cell-based; conditions: for Selective index (a)/(b): IC50 RAW264.7 over IC50 L. amazonensis LV78 amastigotes; for IC50: Leishmania amazonensis, 72 h, infected PEM, 3 days, Giemsa
How it was run: (§3)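 IC50 values derive from the number of amastigotes per 100 macrophages, counted on Giemsa-stained cover slips. Infected mouse PEM had been treated for 72 h at 37 °C.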

RAW264.7 cells = test: Reactive oxygen species (ROS) level, DCFDA, RAW264.7; format: cell-based, murine; conditions: for ROS induction in macrophages: RAW264.7
Method: as §1, §2

[4] = Cytotoxicity, peritoneal elicited macrophages (PEM); format: cell-based, mouse; conditions: mouse, Cytotoxicity IC50, PEM
[5] = system: L. donovani Ld39 amastigotes (SSG-resistant); test: Anti-amastigote activity in infected PEM, L. donovani Ld39; format: cell-based; conditions: for Selective index (a)/(c): IC50 RAW264.7 over IC50 L. donovani Ld39 amastigotes; for IC50: Leishmania donovani, 72 h, infected PEM, 3 days, Giemsa, SSG-resistant
How it was run: as §3

[6] = Cytotoxicity, L929 fibroblasts; format: cell-based, mouse; conditions: mouse
Method: IC50 values of known antileishmanials and the amine-containing flavonoid monomers of the present invention to promastigotes (L. amazonensis LV78, L major FV1, L. donovani HU3, L. donovani 39), macrophages (Raw 264.7 and PEM) and mouse fibroblast (L929) were determined. The anti-promastigotes activities and cytotoxicity of the amine-containing flavonoid monomers of the invention are shown in Table 1.

[7] = system: L. donovani HU3 amastigotes; test: Anti-amastigote activity in infected PEM, L. donovani HU3; format: cell-based; conditions: for Selective index (a)/(b): IC50 RAW264.7 over IC50 L. donovani HU3 amastigotes; for IC50: Leishmania donovani, 72 h, infected PEM, 3 days, Giemsa, SSG-sensitive
How it was run: as §3

Row | SMILES | L. amazon LV78 promastigote ROS Level, Relative fold (RF) ([1]; 2 hr) | L. amazon LV78 promastigote ROS Level, Relative fold (RF) ([1]; 4 hr) | L. amazon LV78 promastigote ROS Level, Relative fold (RF) ([1]; 6 hr) | L. amazon LV78 promastigote ROS Level, Relative fold (RF) ([1]; 20 hr) | L. amazon LV78 promastigote ROS Level, Relative fold (RF) ([1]; 46 hr) | L. amazon LV78 promastigote ROS Level, Relative fold (RF) ([1]; 72 hr) | IC50 [2] | Selective index (a)/(b) [3] | IC50 [3] | RAW264.7 ROS Level, Relative fold (RF) (RAW264.7 cells; 10 μM, 2 hr) | RAW264.7 ROS Level, Relative fold (RF) (RAW264.7 cells; 10 μM, 4 hr) | RAW264.7 ROS Level, Relative fold (RF) (RAW264.7 cells; 10 μM, 6 hr) | RAW264.7 ROS Level, Relative fold (RF) (RAW264.7 cells; 10 μM, 8 hr) | RAW264.7 ROS Level, Relative fold (RF) (RAW264.7 cells; 10 μM, 20 hr) | ROS induction in macrophages (RAW264.7 cells; 10 μM) | RAW264.7 ROS Level, Relative fold (RF) (RAW264.7 cells; 30 μM, 2 hr) | RAW264.7 ROS Level, Relative fold (RF) (RAW264.7 cells; 30 μM, 4 hr) | RAW264.7 ROS Level, Relative fold (RF) (RAW264.7 cells; 30 μM, 6 hr) | RAW264.7 ROS Level, Relative fold (RF) (RAW264.7 cells; 30 μM, 20 hr) | RAW264.7 ROS Level, Relative fold (RF) (RAW264.7 cells; 30 μM, 46 hr) | further results
1 | O=c1cc(-c2ccc(OCCOCCN(Cc3ccccn3)Cc3ccccn3)cc2)oc2ccccc12 [FM09, 2-(4-(2-(2-(bis(pyridin-2-ylmethyl)amino)ethoxy)ethoxy)phenyl)-4H-chromen-4-one] | 2.0 fold | 2.1 fold | 2.3 fold | 3.2 fold | 4.3 fold | 6.2 fold | 500 ± 100 nM | 63 | 300 nM | 1.1 fold | 1.1 fold | 1.0 fold | 1.0 fold | 1.1 fold | No ROS induction | 1.3 fold | 1.4 fold | 1.3 fold | 1.4 fold | 2.1 fold | IC50 [4]: 22000 nM; Selective index (a)/(c) [5]: >51.1; IC50 [5]: < 370 nM; IC50 [6]: > 33000 nM; Selective index (a)/(b) [7]: 47.3; IC50 [7]: 400 nM
2 | O=c1cc(-c2ccc(OCCOCCN(CCOCCOc3ccc(-c4cc(=O)c5ccccc5o4)cc3)Cc3ccncc3)cc2)oc2ccccc12 [compound 39] | 1.3 fold | 1.3 fold | 1.3 fold | 1.6 fold | 1.4 fold | 1.6 fold | 210 ± 60 nM | 232.6 | 430 nM | 0.9 fold | 0.9 fold | 0.9 fold | 0.8 fold | 0.9 fold | No ROS induction | 1.3 fold | 1.4 fold | 1.3 fold | 1.3 fold | 1.4 fold | IC50 [4]: > 100000 nM; Selective index (a)/(c) [5]: 47.6; IC50 [5]: 210 ± 60 nM; IC50 [6]: 26400 nM; Selective index (a)/(b) [7]: >500; IC50 [7]: 200 ± 60 nM
